Measurements taken from patent US20130097725A1, “SOYBEAN NODULATION FACTOR RECEPTOR PROTEINS, ENCODING NUCLEIC ACIDS AND USES THEREFOR” (The University of Queensland, priority 2005, published 2013).
Marks after values point to notes of the source that are not given here.

Experiments:
[1] = test system: soybean plants (nod49, nod139, Bragg); experiment: Interaction of B. japonicum inoculum titer and Nod Factor on nodule number; format: in vivo, Glycine max; conditions: for nodule number: nod49, Plus NF 10^−8 M, 35 days
From the text: We tested this phenomenon by inoculating nod49 plants with different titers of B. japonicum CB1809 and observed increased partial nodulation success per plant with elevated rhizobial concentration. […] Since infection thread formation is essential for the progression of early CCDs (FIG. 4B), mutations in GmNFR1α result in non-nodulation. Thus GmNFR1α mutants, when exposed to high NF levels, form nodules via normal infection, showing that GmNFR1β suffices for all early nodule ontogeny steps.

[2] = test system: soybean plants (nod49, nod139, Bragg); experiment: as above; format: in vivo, Glycine max; conditions: Plus NF 10^−8 M, 35 days

## NodV-MeFuc [NF]
[1]; B. japonicum CB1809 10^3 cfu·ml^−1
  nodule number: 0.0 ^a
[1]; B. japonicum CB1809 10^7 cfu·ml^−1
  nodule number: 0.7 ± 0.2 ^b
[1]; B. japonicum CB1809 10^10 cfu·ml^−1
  nodule number: 2.3 ± 0.4 ^c
[1]; nod49 mutant plants, NF 10 nM
  nodulation on addition of NF to the nutrient medium: significantly increased
[2]; Bragg, B. japonicum CB1809 10^3 cfu·ml^−1
  nodule number: 82.5 ± 5.0 ^d
[2]; Bragg, B. japonicum CB1809 10^7 cfu·ml^−1
  nodule number: 101.4 ± 8.5 ^e
[2]; Bragg, B. japonicum CB1809 10^10 cfu·ml^−1
  nodule number: 104.2 ± 6.9 ^e
[2]; nod139, B. japonicum CB1809 10^3 cfu·ml^−1
  nodule number: 0.0 ^a
[2]; nod139, B. japonicum CB1809 10^7 cfu·ml^−1
  nodule number: 0.0 ^a
[2]; nod139, B. japonicum CB1809 10^10 cfu·ml^−1
  nodule number: 0.2 ± 0.2 ^a
